Assay results: patent US20220380341A1, “INHIBITORS OF HIV-1 NEF FOR THE TREATMENT OF HIV DISEASE” (priority 2018, published 2022)
Read-outs that look alike come from different tables or passages of the source.

Legend:
HIV-1NL4-3 = experiment: HIV-1 infectivity assay in TZM-bl reporter cell line (LTR-luciferase, 48 h); assay type: cell-based; conditions: Human immunodeficiency virus 1, TZM-bl
In short: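 Percent inhibition of HIV-1NL4-3 infectivity at 1 μM compound, from luciferase output of TZM-bl cells 48 h after infection. Scale anchors are DMSO-treated wild-type infection as zero and DMSO-treated Nef-defective infection as full Nef-dependent effect.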

HIV-1 NefNL4-3 = HIV-1 NefNL4-3 (Human immunodeficiency virus type 1 group M subtype B, UniProt P03406, A33V/T15A/T51N/V11I); experiment: Surface plasmon resonance binding to recombinant full-length Nef (NL4-3); conditions: for T, minutes (residence time): 2-step induced fit, T = 1/koff2; for RU30/RUNef (extent of binding): response units at 30 μM relative to Nef immobilized on the SPR chip
TZM-bl cell line = assay type: cell-based; conditions: human, 1 μM
In short: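 Luciferase read-out 48 h post-infection; compound at 1 μM during HIV-1NL4-3 infection of TZM-bl cells. Percent inhibition scaled to DMSO wild-type virus (0%) and DMSO Nef-defective virus (100% of Nef-dependent effect). Viability checked separately in uninfected cells by Cell Titer Blue.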

[1] = 1.0 μM, TZM-bl reporter cell line, Table 4, read-out: % Infectivity Inhibition
[2] = 48 h, Table 1, TZM-bl cells, 1 μM, 48 h, 100% = Nef-defective HIV-1, read-out: HIV-1 Infectivity % Inhibition Norm. to Δ-Nef @ 1 μM
[3] = KD, M, Table 4, SPR fit 2-step induced fit, KD = koff/kon × koff2/(koff2 + kon2)
[4] = Nef NL4-3 Binding, SPR 2-state fitting KD, Table 1, 2-step induced-fit model
[5] = read-out: Nef NL4-3 Binding, SPR 1:1 or 2-site fitting KD2, Table 1, 2-site fit, second component

Row | Compound | inhibition at 1 µM (HIV-1NL4-3; [1]) [%] | inhibition at 1 µM (HIV-1NL4-3; [2]) [%] | Kd (HIV-1 NefNL4-3) [nM] | Kd (HIV-1 NefNL4-3; [3]) [nM] | Kd (HIV-1 NefNL4-3; [4]) [nM] | T, minutes (residence time) (HIV-1 NefNL4-3; Table 4) | Kd (HIV-1 NefNL4-3; [5]) [nM] | RU30/RUNef (extent of binding) (HIV-1 NefNL4-3) | % Cell Viability (TZM-bl cell line) [%] | Percent Viability @ 1 μM (TZM-bl cells) (TZM-bl cell line) [%] | Nef NL4-3 Binding, SPR 1:1 or 2-site fitting KD1 (HIV-1 NefNL4-3; Table 1, 1:1 Langmuir fit where the KD2 cell says '1 to 1 fitting', else 2-site fit) | inhibition at 1 µM (HIV-1NL4-3; 48 h, Table 2, TZM-bl cells, 1 μM, 48 h, 100% = Nef-defective HIV-1, read-out: HIV-1 Infectivity % Inhibition Norm. to Δ-Nef @ 1 μM) [%]
1 | Oc1c(CCC2CCN(CC(F)(F)F)CC2)c(-c2ccc(C(F)(F)F)cc2)nn1-c1nc2ccccc2[nH]1 [Compound I-1006, 1-(1H-1,3-benzodiazol-2-yl)-4-{2-[1-(2,2,2-trifluoroethyl)piperidin-4-yl]ethyl}-3-[4-(trifluoromethyl)phenyl]-1H-pyrazol-5-ol] | 83.1 | 83.1 | 472 | 1.24 | 1.24 | 1.80E + 04 minutes | 15100 | 5.08E- 03 | 85.2 | 85.2 | – | –
2 | O=C(O)c1ccc(-c2nn(-c3nc4ccccc4[nH]3)c(O)c2CCc2ccc(F)cc2)cc1 [Compound I-1101, 4-[1-(1H-1,3-benzodiazol-2-yl)-4-[2-(4-fluorophenyl)ethyl]-5-hydroxy-1H-pyrazol-3-yl]benzoic acid] | – | -9.9 | 376 | – | – | – | – | – | – | 99.3 | – | –
3 | O=C(NCC1CC1)c1ccc(-c2nn(-c3nc4ccccc4[nH]3)c(O)c2CCc2ccc(F)cc2)cc1 [Compound I-1201, 4-[1-(1H-1,3-benzodiazol-2-yl)-4-[2-(4-fluorophenyl)ethyl]-5-hydroxy-1H-pyrazol-3-yl]-N-(cyclopropylmethyl)benzamide] | 11.8 | 11.8 | 369 | 740 | 740 | 2.06E + 03 minutes | 2510 | 2.17E- 02 | 95.4 | 95.4 | – | –
4 | Nc1c(CCc2ccc(F)cc2)c(-c2ccc(Cl)cc2)nn1-c1nc2ccccc2[nH]1 [Compound I-1401, 1-(1H-1,3-benzodiazol-2-yl)-3-(4-chlorophenyl)-4-[2-(4-fluorophenyl)ethyl]-1H-pyrazol-5-amine] | – | -34.5 | – | – | – | – | – | – | – | 99.7 | No Interaction | –
5 | Nc1c(CCC2CCOCC2)c(-c2ccc(F)cc2)nn1-c1cc(C(F)(F)F)n[nH]1 [Compound I-1402] | – | – | 4750 | – | – | – | – | – | – | 102.2 | – | 8.7
